Columns and labels:
CK1α [1] = biological target: T1, CK1α (Homo sapiens, UniProt P48729+Q96SW2); test: CK1α NanoBit Assay (HiBiT-tagged CSNK1A1 in HEK293 cells, luminescence); format: cell-based; details: 24 h
T1 construct: HEK293 clonal lines with CRISPR KI HiBiT tag on CSNK1A1; host or cells: HEK293 clonal line, CRISPR knock-in HiBiT at the CSNK1A1 locus, stably expressing LgBiT
Summary of the method: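 HEK293 with endogenous HiBiT-tagged CSNK1A1 and stable LgBiT, live-cell Endurazine substrate; compound added at 10 or 30 μM final top concentration after 16 h plating, then 24 h at 37 °C. Luminescence normalised to plate controls; DC50 by 3-parameter logistic fit, hill slope 1.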

LS180 = test: Growth inhibition, CyQUANT Direct Cell Proliferation Assay, LS180; format: cell-based; details: Homo sapiens; LS180 cells, 120 to 168 hours
Method: (§1) SKCO1, LS180, and LS174T cell lines were purchased from ATCC. CW2 cell line was purchased from Riken. GP2D cell line was purchased from Sigma/ECACC. All cell lines were cultured in manufacturer's recommended media at 37° C., 5% CO2. Briefly, cells were suspended in 200 μL of media and seeded at 300 to 1,800 cells per well in tissue culture treated 96-well plates with black walls and clear bottom. Plates were incubated overnight and initial (TO) read was performed the following day using CyQUANT Direct Cell Proliferation Assay Kit (Thermo Fisher Scientific) according to manufacturer's protocol. All compounds were solubilized in DMSO and prepared at 3-fold serial dilution, using 9 points starting at 30 μM as highest concentration, administered to cells and incubated for 120 to 168 hours, at which point CyQUANT assay measurement was performed using Acumen Cellista instrument (Ex/Em 480/520 nm). Media-only wells were used as blank, and 0.3% DMSO was used as DMSO-treated cell control. Growth inhibition (percent response) was calculated using the following formula in Excel: “=if ([Compound treated Day N]>[Untreated Day 0, AVG], ([Compound treated Day N]− [Untreated Day 0, AVG])/([Untreated Day N]−[Untreated Day 0, AVG])*100, ([Compound Treated Day N]−[Untreated Day 0, AVG])/([Untreated Day 0, AVG])*100)”. GI50 is the response corresponding to the 50% of untreated control.
(§2) GI50 data are reported in Tables 4a, 4b, 4c, 4d, and 4e for compounds in Table 1. In Tables 4a, 4b, 4c, 4d, and 4e below, According to the code, A represents a GI50 value of ≤0.1 μM, B represents a GI50 value >0.1 μM and ≤1 μM, C represents an GI50 value >1 μM.

CK1α [2] = biological target: T1, CK1α; test: Western blot of CK1α levels in HEK293 cell line; format: cell-based; details: cereblon present, 0.1, 1, 10 μM, 24 hours
Method: FIG. 1 depicts effects of compound 101 on CK1α levels in an HEK293 cell line in comparison to effects of compound 101 on CK1α levels in a cereblon (CRBN) knock-out HEK293 cell line.
HEK293 cell line is purchased from ATCC (CRL-1573). HEK293 CRBN knock out (k/o) cell line (B2) is generated internally using CRISPR/Cas9 method and clonally expanded. Cells are plated at 2×10^5 cells per well in 6-well tissue culture plates (VWR) in 2 ml of DMEM media (Gibco) containing 10% FBS (Gibco), and incubated for 16 hours at 37° C., 5% CO2. Compounds are added to final concentration of 0.1 μM, 1 μM, 10 μM (DMSO concentration is kept constant at 0.1%), following incubation at 37° C., 5% CO2 for additional 24 hours. Cell lysis is performed using RIPA buffer (Pierce) containing Halt™ Protease Inhibitor Cocktail (ThermoFisher Scientific). Lysates are boiled at 95° C. for 10 minutes and 12 μg of protein lysate per sample is resolved by SDS-PAGE using 12% gels (BioRad) and transferred to nitrocellulose membrane (BioRad). Membranes are blocked using LI-COR blocking buffer (LI-COR) at room temperature for 1 hour, followed by overnight incubation with rabbit anti-CK1α (Abcam ab206652), rabbit anti-CRBN (Sigma HPA045910) and mouse anti-α-tubulin (Sigma T9026) antibodies at 4° C. Secondary antibodies (LI-COR) are added for a hour at room temperature, followed by imaging with LI-COR imaging system Odyssey® CLx.

SKCO1 = test: Growth inhibition, CyQUANT Direct Cell Proliferation Assay, SKCO1; format: cell-based; details: Homo sapiens, SK-CO-1; SKCO1 cells, 120 to 168 hours
Method: as §1, §2

CW2 = test: Growth inhibition, CyQUANT Direct Cell Proliferation Assay, CW2; format: cell-based; details: Homo sapiens, CW-2; CW2 cells, 120 to 168 hours
Method: as §1, §2

[3] = Mouse oral PK at 10 mg/kg; format: in vivo, Male BALB/c mice; details: male, BALB/c, plasma
Method: Male BALB/c mice were fasted overnight and administered a discrete, oral (PO) dose of Compound 107 or Compound 125 at 10 mg/kg.
Blood samples were collected serially from three animals/time-point following PO administration of the test compounds to the mice and placed in tubes containing K2EDTA. The blood samples were centrifuged, and the aliquots of the resulting plasma stored frozen at −60 to −90° C.
The plasma samples were analyzed by LC-MS/MS to determine concentrations of the test compounds. The in-life portion of the study and the bioanalysis of plasma samples was conducted at Wuxi (China).
The pharmacokinetic parameters for the tested compounds were calculated by non-compartmental analysis using Phoenix WinNonlin software.

T1 sequence (P48729 whole entry): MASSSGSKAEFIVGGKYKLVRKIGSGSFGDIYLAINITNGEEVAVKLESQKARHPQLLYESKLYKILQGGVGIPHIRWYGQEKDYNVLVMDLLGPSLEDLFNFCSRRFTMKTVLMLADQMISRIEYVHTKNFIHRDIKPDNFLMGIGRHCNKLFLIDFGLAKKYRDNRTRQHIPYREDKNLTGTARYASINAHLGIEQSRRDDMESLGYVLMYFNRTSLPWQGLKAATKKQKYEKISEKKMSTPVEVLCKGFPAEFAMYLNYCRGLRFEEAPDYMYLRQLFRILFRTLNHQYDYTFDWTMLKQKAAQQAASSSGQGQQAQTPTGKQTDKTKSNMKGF
T1 sequence (Q96SW2 whole entry): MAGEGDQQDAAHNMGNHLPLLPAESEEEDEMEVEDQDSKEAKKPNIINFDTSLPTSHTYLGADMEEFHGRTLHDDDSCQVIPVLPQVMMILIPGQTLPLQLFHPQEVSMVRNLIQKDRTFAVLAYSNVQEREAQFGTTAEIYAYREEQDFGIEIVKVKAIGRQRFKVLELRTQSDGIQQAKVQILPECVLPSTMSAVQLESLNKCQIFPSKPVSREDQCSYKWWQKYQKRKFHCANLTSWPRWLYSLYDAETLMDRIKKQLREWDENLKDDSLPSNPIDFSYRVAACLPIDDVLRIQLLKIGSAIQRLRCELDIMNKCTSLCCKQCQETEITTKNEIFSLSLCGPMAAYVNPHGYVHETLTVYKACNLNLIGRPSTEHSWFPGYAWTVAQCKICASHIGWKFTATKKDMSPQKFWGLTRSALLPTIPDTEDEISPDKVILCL
T1 sequence (Q16531 whole entry partner): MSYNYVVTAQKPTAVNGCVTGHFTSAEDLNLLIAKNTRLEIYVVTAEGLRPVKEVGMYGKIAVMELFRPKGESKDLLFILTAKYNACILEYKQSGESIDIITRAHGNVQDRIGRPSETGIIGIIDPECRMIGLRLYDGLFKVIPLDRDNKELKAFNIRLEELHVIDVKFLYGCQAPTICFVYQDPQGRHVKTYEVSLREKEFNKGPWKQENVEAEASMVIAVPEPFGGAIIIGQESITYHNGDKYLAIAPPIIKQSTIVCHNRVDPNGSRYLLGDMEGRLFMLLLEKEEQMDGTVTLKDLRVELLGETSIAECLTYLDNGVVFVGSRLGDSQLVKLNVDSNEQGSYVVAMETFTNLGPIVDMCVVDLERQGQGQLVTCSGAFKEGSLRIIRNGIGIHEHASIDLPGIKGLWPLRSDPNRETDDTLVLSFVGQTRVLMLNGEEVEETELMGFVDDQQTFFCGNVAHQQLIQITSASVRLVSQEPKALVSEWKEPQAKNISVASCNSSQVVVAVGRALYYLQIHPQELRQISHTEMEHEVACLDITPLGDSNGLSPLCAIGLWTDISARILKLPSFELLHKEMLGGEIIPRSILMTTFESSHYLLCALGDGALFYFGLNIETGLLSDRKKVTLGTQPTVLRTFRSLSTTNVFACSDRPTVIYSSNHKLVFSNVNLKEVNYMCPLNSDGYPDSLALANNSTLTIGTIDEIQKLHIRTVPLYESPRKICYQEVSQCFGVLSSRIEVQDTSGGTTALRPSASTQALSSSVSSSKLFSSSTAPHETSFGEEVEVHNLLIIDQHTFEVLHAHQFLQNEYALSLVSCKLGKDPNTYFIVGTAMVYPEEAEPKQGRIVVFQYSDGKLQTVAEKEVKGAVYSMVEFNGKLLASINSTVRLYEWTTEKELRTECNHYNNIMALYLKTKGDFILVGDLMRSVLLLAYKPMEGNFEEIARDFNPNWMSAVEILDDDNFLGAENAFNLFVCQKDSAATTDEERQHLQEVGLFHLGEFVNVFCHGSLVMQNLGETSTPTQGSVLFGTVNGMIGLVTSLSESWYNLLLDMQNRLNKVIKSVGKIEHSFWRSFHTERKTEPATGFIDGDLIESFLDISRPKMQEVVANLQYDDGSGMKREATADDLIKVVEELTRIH

Row | Compound | DC50 (CK1α [1]) | GI50 (LS180) | effect on CK1α levels (Western blot, FIG. 1) (CK1α [2]) | GI50 (SKCO1) | GI50 (CW2) | Tmax [3] | AUC ([3]; Mean ± SD) | AUC(0-t) ([3]; Mean ± SD) | Cmax ([3]; Mean ± SD) | half-life ([3]; Mean ± SD)
1 | O=C1CCC(N2Cc3cc(N4CCN(c5ccccc5)C4=O)ccc3C2=O)C(=O)N1 (stereo not drawn) [Compound 101, 3-(1-oxo-5-(2-oxo-3-phenylimidazolidin-1-yl)isoindolin-2-yl)piperidine-2,6-dione] | ≤ 0.1 µM | > 1000 nM | decreases CK1α levels | 100 to 1000 nM | 100 to 1000 nM | – | – | – | – | –
2 | C[C@@H]1CN(c2ccc3c(c2)CN(C2CCC(=O)NC2=O)C3=O)C(=O)N1c1ccccc1 (stereo partly drawn) [Compound 107, 3-(5-((R)-4-methyl-2-oxo-3-phenylimidazolidin-1-yl)-1-oxoisoindolin-2-yl)piperidine-2,6-dione] | ≤ 0.1 µM | – | – | 100 to 1000 nM | ≤ 100 nM | 1 h | 5880 ± 1600 ng·h/mL | 5590 ± 1830 ng·h/mL | 1520 ± 262 ng/mL | 2.53 ± 0.37 h
3 | C[C@@H]1CN(c2ccc3c(c2)CN(C2CCC(=O)NC2=O)C3=O)C(=O)N1c1ccc(C2CC2)cc1 (stereo partly drawn) [Compound 125, 3-(5-((R)-3-(4-cyclopropylphenyl)-4-methyl-2-oxoimidazolidin-1-yl)-1-oxoisoindolin-2-yl)piperidine-2,6-dione] | ≤ 0.1 µM | 100 to 1000 nM | – | ≤ 100 nM | ≤ 100 nM | 1 h | 1860 ± 495 ng·h/mL | 1790 ± 504 ng·h/mL | 717 ± 167 ng/mL | –

Source: US20250115581A1, “SUBSTITUTED PIPERIDINES AS CK1A DEGRADERS” (Monte Rosa Therapeutics, Inc., priority 2022, published 2025)
